From US20160058847A1, “IS100- A Highly Effective Enzyme Principle For Use In Dermal Therapeutics, And For Health And Beauty” (Issar Pharmaceuticals Pvt. Ltd., priority 2014, published 2016)
Entries after “also recorded” stand apart in the source; their conditions may differ.

Experiments:
IS 100 [1] = details: Ac-DEVD-AFC hydrolysis
Description: Rates of hydrolysis of a synthetic peptide Ac-DEVD↓-AFC (N-acetyl-Asp-Glu-Val-Asp-7-amino-4-trifluoromethylcoumarin) as a function of variables are plotted. Note that the rate, ΔF, is determined from the initial slope of the time-dependent fluorescence trace.
In the present test, 400 μL of IS 100 is combined with 2 μL of a 1 mM solution of Ac-DEVD↓-AFC, and the fluorescence is monitored as a function of time at 37° C.

human recombinant PKR = assay: Proteolytic cleavage of PKR by IS 100, Western analysis; type: biochemical; details: inhibitor included in reaction mixture, FIG. 2 lane 1
Description: (§1) FIG. 2 illustrates proteolytic cleavage by formulation IS 100 shown by Western analysis of cleavage products of substrate proteins. IS 100 was incubated with the test protein in the presence and absence of the synthetic inhibitor Ac-DEVD-CHO, and the reaction product was immunoblotted using antibody for the test protein.
(§2) These two proteins were chosen simply because of their ready availability with the investigators. In fact, any protein will be a substrate for IS 100. In a typical protocol, IS 100 is incubated with the test substrate protein in the presence and absence of the synthetic inhibitor Ac-DEVD-CHO, and the reaction products are analyzed by electrophoresis, the amount of the uncut test protein is immunoblotted with human anti-PKR or anti-PERK antibodies. Note that immunoblotting of a test protein by using the corresponding antibody will show the status of that protein alone, and not other proteins present in IS 100.

human recombinant PERK = assay: Proteolytic cleavage of PERK by IS 100, Western analysis; type: biochemical; details: inhibitor included in reaction mixture, FIG. 2 lane 1
Description: as §1, §2

IS 100 [2] = type: biochemical, wheat; details: pH 7, 37° C.; for inhibition of IS 100 activity (in words): Ac-DEVD-AFC hydrolysis, 20 mM HEPES, 0.05% CHAPS, 5% sucrose, FIG. 3
Description: As described above, the proteolytic activity of IS 100 can be blocked by using an inhibitor which blocks the active site of the protein enzyme present in the IS 100 principle. In FIG. 2 inhibitor Ac-DEVD-CHO inhibits the activity of IS 100. Several other chemicals or compounds can be tested for their efficacy in blocking the activity of IS 100. In such experiments, IS 100 is mixed with its synthetic substrate Ac-DEVD↓-AFC, and a constant volume of the inhibitor compound is added to check the extent to which the inhibitor blocks the activity of IS 100. In all experimental runs the concentrations of IS 100 and Ac-DEVD↓-AFC are maintained uniformly. The pH for all experiments is kept at 7 and the experiments are run at 37° C.

In the case of `[Cl-].[Cl-].[Mg+2]` [MgCl2, magnesium chloride], the “concentration at which the activity passes through a minimum” value (IS 100 [1]; FIG. 1F) is reported as roughly 0.1 mM.

Ac-DEVD-CHO was tested, and the “block of PKR cleavage by IS 100” value (human recombinant PKR) was “cleavage is blocked; also recorded: not cleaved”, the “block of PERK cleavage by IS 100” value (human recombinant PERK) was “cleavage is blocked; also recorded: not cleaved” and the “inhibition of IS 100 activity (in words)” value (IS 100 [2]) was “inhibits the activity of IS 100 significantly”.

In the case of `O=S(=O)(F)Cc1ccccc1` [PMSF, phenylmethanesulfonyl fluoride], the “inhibition of IS 100 activity (in words)” value (IS 100 [2]) is reported as “only marginally; also recorded: sign of inhibition is also apparent” and the “inhibition of IS 100 activity” value (IS 100 [2]; at 1000 μM, FIG. 3C) is reported as roughly 10%.

Compound `[Cl-].[Cl-].[Zn+2]` [ZnCl2, zinc chloride] has a Kd (IS 100 [1]; read-out: apparent binding constant, KZn app (inhibition), FIG. 1E) of 310 µM.

`CC(=O)N[C@@H](CC(C)C)C(=O)N[C@@H](CC(C)C)C(=O)N[C@H](C=O)CCCNC(=N)N` [leupeptin] was tested, and the “inhibition of IS 100 activity (in words)” value (IS 100 [2]) was “influences the activity to some extent” and the “inhibition of IS 100 activity, saturation level” value (IS 100 [2]; at ~25 μM, FIG. 3B) was 30%.

With `[Cl-].[Na+]` [NaCl, sodium chloride] the “effect of NaCl concentration on enzyme activity” value (IS 100 [1]; FIG. 1D) was “highly sensitive”.

In the case of `O=C(O)CI` [IAA, Iodoacetic acid], the “inhibition of IS 100 activity (in words)” value (IS 100 [2]) is reported as “completely inhibits the activity; also recorded: almost completely knocks out the activity”.
